{"source": "paper PMC5294416", "about": "“Novel peptides for deciphering structural and signalling functions of E-cadherin in mouse embryonic stem cells” (Scientific Reports, 2017)", "key": {"[1]": {"system": "NANOG protein in wtD3 mESCs", "experiment": "Immunofluorescence microscopy analysis of NANOG protein expression", "type": "cell-based, mouse", "conditions": "96 h / 4 days where stated", "method": "Monolayer cultured mESCs were fixed in situ in 4% w/v PFA in PBS for 30 minutes at room temperature, washed twice with PBS and blocked with 1% goat serum in 0.1% w/v BSA, 0.1% Triton X-100 in PBS for 30 minutes. Cells were incubated in the appropriate primary antibody in goat blocking buffer for two hours at RT. Cells were washed three times in PBS and incubated in the appropriate Alexa fluor-488 or −546 conjugated secondary antibody at RT for 1 hour in the dark. Cells were washed three times with PBS, mounted in 4′6-diamidino-2-phenylindole (DAPI) (Vector Laboratories) and visualized using a Leica DM6000B fluorescence microscope (Leica Microsystems) and processed using Leica LAS X Core software (Leica Microsystems). Primary antibodies: anti-Nanog, 1:200 dilution (ab80892, Abcam Plc, Cambridge, UK); anti-Oct4, 1:200 dilution (ab19857, Abcam Plc, Cambridge, UK). […] Cells were visualized using a Leica DM6000B fluorescence microscope (Leica Microsystems) and processed using Leica LAS X Core software (Leica Microsystems).\n(§1) Images were imported into ImageJ and fluorescence intensity measured using the Analyse > Measure function on areas selected using the rectangular or oval selection icons."}, "[2]": {"system": "STAT3 phosphorylation in wtD3 mESCs", "experiment": "Western blot analysis of phosphorylated STAT3", "type": "cell-based, mouse", "method": "(§2) Unless otherwise stated, mESC lines were grown on gelatinised tissue culture grade 6-well plates at 37 °C/5% CO2, as previously described. mESCs cells were treated with 10 μM peptide in mESC culture medium which was replenished every 24 h. Inhibition of specific pathways in mESCs was achieved by incubation with 10 μM LY294002 (PI3K inhibitor), PD9805 (MEK inhibitor) and SB431542 (TGFβ1 R inhibitor).\n(§3) Cells were harvested using cell dissociation buffer, centrifuged and washed with PBS prior to lysis using Radioimmunoprecipitation (RIPA) buffer (Sigma) containing protease inhibitor cocktail tablets (1 tablet per 10 ml RIPA buffer) (Roche Applied Science) at a concentration of 2 × 10^7 cell/ml. Lysates were separated by SDS-PAGE and electrotransferred onto nitrocellulose membrane as previously described. The membrane was probed using the appropriate primary antibody with subsequent incubation with HRP-conjugated secondary antibody. The membrane was exposed to an autoradiographic film (Hyperfilm ECL, GE Healthcare, Amersham, UK) for the appropriate time period in an X-ray cassette before the film was manually developed in a dark room using Kodak GBX developer and fixer solutions (Sigma, Dorset, UK). Primary antibodies: anti-α-tubulin, 1:2000 dilution (T9026, Sigma, Dorset, UK); anti-AKT, 1:200 dilution (#9272, Cell Signalling Technology, MA, USA); anti-pAKT (Ser473), 1:200 (#4060S, Cell Signalling Technology, MA, USA); anti-STAT3, 1:200 dilution (SC-482, Santa Cruz Biotechnology Inc, TX, USA); anti-pSTAT3, 1:200 dilution (#9138S, Cell Signalling Technology, MA, USA)."}, "[3]": {"system": "wtD3 mESCs", "experiment": "Loss of cell-cell contact, phase contrast microscopy", "type": "cell-based, mouse", "method": "as §2"}, "[4]": {"system": "MCF-7", "conditions": "MCF-7 cell line; cited from earlier work", "source_text": "(§4) E-cadherin provides an attractive target to manipulate ESCs in culture since cell signalling mediated through this protein has significant effects on both ESC pluripotent states and survival. We have previously shown that abrogation of E-cadherin-mediated cellular aggregation allows culture of mESCs in shake flask bioreactors whilst retaining pluripotency, either through gene knockout or an inhibitory antibody DECMA-1[16]. However, utilisation of E-cadherin neutralising Abs for ESC culture is expensive and more cost-effective E-cadherin inhibitors are required before this technique becomes com ..."}, "[5]": {"system": "wtD3 mESCs", "conditions": "mESC cell line; cited from earlier work", "source_text": "as §4"}, "[6]": {"system": "STAT3 phosphorylation in wtD3 mESCs", "conditions": "mESC; cited from earlier work", "source_text": "as §4"}, "[7]": {"system": "OCT4 protein in wtD3 mESCs", "experiment": "Immunofluorescence microscopy analysis of OCT4 protein expression with pathway inhibitors", "type": "cell-based, mouse", "method": "as §2\nMonolayer cultured mESCs were fixed in situ in 4% w/v PFA in PBS for 30 minutes at room temperature, washed twice with PBS and blocked with 1% goat serum in 0.1% w/v BSA, 0.1% Triton X-100 in PBS for 30 minutes. Cells were incubated in the appropriate primary antibody in goat blocking buffer for two hours at RT. Cells were washed three times in PBS and incubated in the appropriate Alexa fluor-488 or −546 conjugated secondary antibody at RT for 1 hour in the dark. Cells were washed three times with PBS, mounted in 4′6-diamidino-2-phenylindole (DAPI) (Vector Laboratories) and visualized using a Leica DM6000B fluorescence microscope (Leica Microsystems) and processed using Leica LAS X Core software (Leica Microsystems). Primary antibodies: anti-Nanog, 1:200 dilution (ab80892, Abcam Plc, Cambridge, UK); anti-Oct4, 1:200 dilution (ab19857, Abcam Plc, Cambridge, UK). For immunofluorescence microscopy analysis of fluorescent-tagged peptides, cells were incubated in 500 μM peptide in cell culture medium for 15 minutes, washed twice in ice cold PBS and mounted with Vectorshield containing DAPI. Cells were visualized using a Leica DM6000B fluorescence microscope (Leica Microsystems) and processed using Leica LAS X Core software (Leica Microsystems).\nas §1"}, "[8]": {"system": "pERK1/2 in wtD3 mESCs", "experiment": "Western blot analysis of phosphorylated ERK1/2", "type": "cell-based, mouse"}, "[9]": {"system": "Nanog, Klf4, Tbx3, Esrrb, Nr0b1, Nr5a2 and Tet1 transcripts in wtD3 mESCs", "experiment": "qPCR analysis of pluripotency transcript expression", "type": "cell-based, mouse", "method": "as §2\nPrimers for qPCR were designed using the Roche Applied science Universal Probe Library software and BLAST screened for sequence specificity. Only primers producing a single dissociation peak were used. RNA was extracted from mESCs and cDNA at a concentration of 2 ng/μl was used for analysis in a MicroAmp Optical 96-well Reaction Plate (Applied Biosystems) using SYBR green Jumpstart Taq ReadyMix (Applied Biosystems). Primer sequences: 18srRNA Forward (F) […], Reverse (R) […]; ESRRB F-[…], R-[…]; KLF4 F-[…], R-ATGTCCGCCAGGTTGAAG; NANOG F-[…], R-[…]; NR0B1 F-[…], R-[…]; NR5A2 F-[…], R-[…]; TBX3 F-[…], R-[…]; TET1 F-[…], R-[…]."}, "[10]": {"biological_target": "T1, recombinant mouse E-Cadherin Fc Chimera (Mus musculus, UniProt P09803)", "T1 construct": "purchased R&D Systems", "experiment": "Biacore SPR equilibrium binding analysis (affinity capture)", "method": "Biacore SPR analysis was used to measure the interaction between peptides and recombinant mouse E-Cadherin Fc Chimera (R&D Systems). Analytes were passed over an HTE chip with surface bound His-tagged Recombinant Mouse E-Cadherin Fc Chimera (R&D Systems). The kinetics of interaction, i.e. the rates of complex formation (ka) and dissociation (kd), were determined and Integrin α4β7 protein was used as a control. Analysis was performed by the Biomolecular Analysis Core Facility (The University of Manchester, UK) on a Proteon XPR-36 protein interaction array system (Bio-Rad) using a HTE chip for high capacity His-tagged protein capture (Bio-Rad). Equilibrium analysis runs were performed three times and an average KD was calculated. Running buffer: HBS/0.02%, Tween/2 mM, CaCl2/1 mM MgCl2."}, "[11]": {"system": "mESCs", "experiment": "Cell viability in monolayer culture", "type": "cell-based, mouse", "conditions": "data not shown"}, "[12]": {"system": "Akt phosphorylation in mESCs", "experiment": "Akt phosphorylation in treated mESCs", "type": "cell-based, mouse", "conditions": "data not shown", "method": "as §3"}, "[13]": {"conditions": "transcript, mESCs, Fig. 6a summary"}}, "note": "“Also recorded” adds a separate entry of the source.", "data": [{"substance": "H-SWELYYPLRANL-NH2 [Epep, H-SWELYYPLRANL-NH2]", "values": [{"measurement": "NANOG protein expression", "setting": "[1]", "result": "decreased NANOG protein expression"}, {"measurement": "Loss of pStat3", "setting": "[2]; mESCs, Fig. 6a summary", "result": "YES"}, {"measurement": "Effect on STAT3 phosphorylation (in words)", "setting": "[2]; wtD3 mESCs vs control treated cells, western blot", "result": "decreased STAT3 phosphorylation within 24 h; also recorded: significantly decreased phosphorylation of STAT3"}, {"measurement": "Loss of cell-cell contact (10μM)?", "setting": "[3]; mESCs, 10 μM, Fig. 6a summary", "result": "YES"}, {"measurement": "Effect on cell-cell contact (in words)", "setting": "[3]; wtD3 mESCs, 10 μM peptide, 24 h, phase contrast", "result": "loss of cell-cell contact after 24 h; also recorded: loss of cell-cell contact within 24 h"}, {"measurement": "Cell-cell contact after removal of the inhibitor", "setting": "[3]; wtD3 mESCs, 24 h post-removal of treatment", "result": "restoration of cell-cell contact; also recorded: reversible"}, {"measurement": "inhibition of E-cadherin mediated cell-cell contact", "setting": "[4]", "result": "inhibit E-cadherin mediated cell-cell contact"}, {"measurement": "inhibition of E-cadherin mediated cell-cell contact", "setting": "[5]", "result": "inhibit E-cadherin mediated cell-cell contact"}, {"measurement": "phosphorylation of STAT3", "setting": "[6]", "result": "abrogate phosphorylation of STAT3"}, {"measurement": "OCT4 protein expression in the presence of SB431542", "setting": "[7]; peptide-treated wtD3 mESCs plus Activin/Nodal inhibitor SB431542, after 5 days", "result": "maintained expression of OCT4 protein"}, {"measurement": "OCT4 protein expression in the presence of SU5402", "setting": "[7]; peptide-treated wtD3 mESCs plus FGFR1 inhibitor SU5402, after 5 days", "result": "maintained expression of OCT4 protein"}, {"measurement": "pERK1/2 compared to untreated mESCs", "setting": "[8]", "result": "decreased pERK1/2"}, {"measurement": "Transcripts restored to control levels after removal of inhibitor", "setting": "[9]; mESCs, 24 h post-removal", "result": "Nanog, Esrrb, Tbx3 and Tet1"}, {"measurement": "Loss of ESRRB", "setting": "[9]; [13]", "result": "YES"}, {"measurement": "Loss of Klf4", "setting": "[9]; [13]", "result": "YES"}, {"measurement": "Loss of Nanog", "setting": "[9]; [13]", "result": "YES"}, {"measurement": "Loss of Nr0b1", "setting": "[9]; [13]", "result": "YES"}, {"measurement": "Loss of Nr5a2", "setting": "[9]; [13]", "result": "YES"}, {"measurement": "Loss of TBX3", "setting": "[9]; [13]", "result": "YES"}, {"measurement": "Transcripts with decreased expression compared to control (qPCR)", "setting": "[9]; wtD3 mESCs, 10 μM peptide, 24 h", "result": "Nanog, Klf4, Tbx3, Esrrb, Nr0b1, Nr5a2 and Tet1"}, {"measurement": "Transcripts remaining significantly decreased after removal of inhibitor", "setting": "[9]; wtD3 mESCs, 24 h following removal", "result": "Klf4, Nr0b1 and Nr5a2"}, {"measurement": "Kd", "setting": "[10]; equilibrium analysis using affinity capture on HTE chip, peptide stock in water, average of three runs, running buffer HBS/0.02% Tween/2 mM CaCl2/1 mM MgCl2", "result": 3.4, "unit": "µM"}, {"measurement": "Kd", "setting": "[10]; peptide dissolved in 10%v/v DMSO/H2O, equilibrium analysis using affinity capture", "result": 1.15, "unit": "µM"}, {"measurement": "cell viability in monolayer culture", "setting": "[11]", "result": "no significant difference in cell viability"}, {"measurement": "Akt phosphorylation", "setting": "[12]", "result": "no changes in Akt phosphorylation"}]}]}
